From ChEMBL document CHEMBL5678818, “Discovery of potent SOS1 inhibitors that block RAS activation via disruption of the RAS-SOS1 interaction” (Proc Natl Acad Sci U S A, 2019) come the findings set out here.

For test [1], the target named is Macrophage colony-stimulating factor 1 receptor (Homo sapiens) (UniProt P07333). Kind of test: Inhibition of autoinhibited CSF1R (unknown origin) assessed as residual activity at 100 nM by KINOMEscan analysis relative to control.
In test [2] the target is T1, Tyrosine-protein kinase ITK/TSK (Homo sapiens) (UniProt Q08881).
T1 sequence (whole entry): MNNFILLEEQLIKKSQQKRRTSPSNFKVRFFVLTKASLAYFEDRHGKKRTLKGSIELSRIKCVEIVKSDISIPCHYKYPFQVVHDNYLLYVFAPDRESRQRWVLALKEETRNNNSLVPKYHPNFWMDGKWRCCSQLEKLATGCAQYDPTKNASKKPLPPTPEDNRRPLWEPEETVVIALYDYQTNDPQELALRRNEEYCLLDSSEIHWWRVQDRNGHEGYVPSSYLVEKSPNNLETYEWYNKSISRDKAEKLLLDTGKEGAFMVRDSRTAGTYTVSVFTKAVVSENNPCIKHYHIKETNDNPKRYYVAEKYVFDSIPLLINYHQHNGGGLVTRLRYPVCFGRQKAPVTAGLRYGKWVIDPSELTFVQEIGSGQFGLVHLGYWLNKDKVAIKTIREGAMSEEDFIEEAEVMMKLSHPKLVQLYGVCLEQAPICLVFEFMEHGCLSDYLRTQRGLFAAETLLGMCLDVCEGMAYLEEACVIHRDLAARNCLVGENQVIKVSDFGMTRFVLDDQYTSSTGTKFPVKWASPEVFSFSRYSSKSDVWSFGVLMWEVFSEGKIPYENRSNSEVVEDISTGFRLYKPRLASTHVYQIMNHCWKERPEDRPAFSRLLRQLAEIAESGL
Kind of test: Inhibition of ITK (unknown origin) assessed as residual activity at 100 nM by KINOMEscan analysis relative to control.

Test [3] concerns the target Serine/threonine-protein kinase pim-1 (Homo sapiens) (UniProt P11309). The experiment in a line: Inhibition of PIM1 (unknown origin) assessed as residual activity at 100 nM by KINOMEscan analysis relative to control.
Test [4] has as its target T2, Tyrosine-protein kinase receptor TYRO3 (Homo sapiens) (UniProt Q06418).
T2 sequence (whole entry): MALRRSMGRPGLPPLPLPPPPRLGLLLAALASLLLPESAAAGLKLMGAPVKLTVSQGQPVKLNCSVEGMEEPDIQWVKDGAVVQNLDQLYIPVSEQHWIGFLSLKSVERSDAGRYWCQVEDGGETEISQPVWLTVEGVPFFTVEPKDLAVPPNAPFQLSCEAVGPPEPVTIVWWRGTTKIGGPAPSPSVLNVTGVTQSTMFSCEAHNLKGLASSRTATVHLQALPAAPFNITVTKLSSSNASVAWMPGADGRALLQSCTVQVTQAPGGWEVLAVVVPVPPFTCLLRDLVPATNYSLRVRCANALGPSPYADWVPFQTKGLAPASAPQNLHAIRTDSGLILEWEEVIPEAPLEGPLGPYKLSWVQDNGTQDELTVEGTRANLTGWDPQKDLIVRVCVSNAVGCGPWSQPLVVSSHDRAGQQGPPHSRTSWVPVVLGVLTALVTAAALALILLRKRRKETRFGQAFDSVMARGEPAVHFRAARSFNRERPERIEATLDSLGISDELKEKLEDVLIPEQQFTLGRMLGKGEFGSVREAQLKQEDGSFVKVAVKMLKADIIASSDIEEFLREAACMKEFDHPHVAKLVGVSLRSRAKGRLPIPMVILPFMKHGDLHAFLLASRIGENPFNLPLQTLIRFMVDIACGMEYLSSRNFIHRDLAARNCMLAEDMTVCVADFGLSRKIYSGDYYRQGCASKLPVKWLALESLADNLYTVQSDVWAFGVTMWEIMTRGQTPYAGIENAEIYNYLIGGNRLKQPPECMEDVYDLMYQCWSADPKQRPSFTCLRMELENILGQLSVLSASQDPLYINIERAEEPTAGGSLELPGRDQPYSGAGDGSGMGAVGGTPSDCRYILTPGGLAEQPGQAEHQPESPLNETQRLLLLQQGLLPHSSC
Kind of test: Inhibition of TYRO3 (unknown origin) assessed as residual activity at 100 nM by KINOMEscan analysis relative to control.

In test [5] the target is T3, Mitogen-activated protein kinase kinase kinase 13 (Homo sapiens) (UniProt O43283).
T3 sequence (whole entry): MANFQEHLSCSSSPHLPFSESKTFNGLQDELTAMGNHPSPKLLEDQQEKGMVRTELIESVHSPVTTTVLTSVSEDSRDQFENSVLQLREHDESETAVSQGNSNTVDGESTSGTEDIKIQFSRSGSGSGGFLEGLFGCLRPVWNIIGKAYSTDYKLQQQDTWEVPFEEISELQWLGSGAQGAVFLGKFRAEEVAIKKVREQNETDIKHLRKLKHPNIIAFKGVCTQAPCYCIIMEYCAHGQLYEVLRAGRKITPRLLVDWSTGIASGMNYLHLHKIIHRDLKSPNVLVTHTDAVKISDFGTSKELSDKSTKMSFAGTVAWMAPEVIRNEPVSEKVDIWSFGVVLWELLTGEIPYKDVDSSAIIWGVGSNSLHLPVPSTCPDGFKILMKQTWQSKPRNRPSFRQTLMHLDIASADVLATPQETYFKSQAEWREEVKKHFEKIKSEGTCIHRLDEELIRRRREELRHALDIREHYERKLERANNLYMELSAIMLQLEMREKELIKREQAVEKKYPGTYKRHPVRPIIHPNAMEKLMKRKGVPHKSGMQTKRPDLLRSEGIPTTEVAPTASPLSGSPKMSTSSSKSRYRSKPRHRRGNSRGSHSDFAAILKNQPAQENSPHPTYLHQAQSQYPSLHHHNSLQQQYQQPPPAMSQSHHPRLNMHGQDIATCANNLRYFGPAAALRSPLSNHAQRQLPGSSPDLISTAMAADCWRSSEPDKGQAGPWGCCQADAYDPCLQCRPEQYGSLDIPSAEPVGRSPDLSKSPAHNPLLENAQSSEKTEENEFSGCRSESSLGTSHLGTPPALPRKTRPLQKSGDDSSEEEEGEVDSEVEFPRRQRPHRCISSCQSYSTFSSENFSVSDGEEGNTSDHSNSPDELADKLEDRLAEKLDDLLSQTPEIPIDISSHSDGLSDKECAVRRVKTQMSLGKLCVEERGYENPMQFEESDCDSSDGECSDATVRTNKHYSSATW
The experiment in a line: Inhibition of LZK (unknown origin) assessed as residual activity at 100 nM by KINOMEscan analysis relative to control.

The test system of test [6] is eIF-2-alpha kinase GCN2 (Homo sapiens), Q9P2K8 [S808G]. The experiment in a line: Inhibition of GCN2 S808G mutant […] domain (unknown origin) assessed as residual activity at 100 nM by KINOMEscan analysis relative to control.
Sequence of eIF-2-alpha kinase GCN2 (Homo sapiens), Q9P2K8 [S808G] (Q9P2K8 whole entry S808G): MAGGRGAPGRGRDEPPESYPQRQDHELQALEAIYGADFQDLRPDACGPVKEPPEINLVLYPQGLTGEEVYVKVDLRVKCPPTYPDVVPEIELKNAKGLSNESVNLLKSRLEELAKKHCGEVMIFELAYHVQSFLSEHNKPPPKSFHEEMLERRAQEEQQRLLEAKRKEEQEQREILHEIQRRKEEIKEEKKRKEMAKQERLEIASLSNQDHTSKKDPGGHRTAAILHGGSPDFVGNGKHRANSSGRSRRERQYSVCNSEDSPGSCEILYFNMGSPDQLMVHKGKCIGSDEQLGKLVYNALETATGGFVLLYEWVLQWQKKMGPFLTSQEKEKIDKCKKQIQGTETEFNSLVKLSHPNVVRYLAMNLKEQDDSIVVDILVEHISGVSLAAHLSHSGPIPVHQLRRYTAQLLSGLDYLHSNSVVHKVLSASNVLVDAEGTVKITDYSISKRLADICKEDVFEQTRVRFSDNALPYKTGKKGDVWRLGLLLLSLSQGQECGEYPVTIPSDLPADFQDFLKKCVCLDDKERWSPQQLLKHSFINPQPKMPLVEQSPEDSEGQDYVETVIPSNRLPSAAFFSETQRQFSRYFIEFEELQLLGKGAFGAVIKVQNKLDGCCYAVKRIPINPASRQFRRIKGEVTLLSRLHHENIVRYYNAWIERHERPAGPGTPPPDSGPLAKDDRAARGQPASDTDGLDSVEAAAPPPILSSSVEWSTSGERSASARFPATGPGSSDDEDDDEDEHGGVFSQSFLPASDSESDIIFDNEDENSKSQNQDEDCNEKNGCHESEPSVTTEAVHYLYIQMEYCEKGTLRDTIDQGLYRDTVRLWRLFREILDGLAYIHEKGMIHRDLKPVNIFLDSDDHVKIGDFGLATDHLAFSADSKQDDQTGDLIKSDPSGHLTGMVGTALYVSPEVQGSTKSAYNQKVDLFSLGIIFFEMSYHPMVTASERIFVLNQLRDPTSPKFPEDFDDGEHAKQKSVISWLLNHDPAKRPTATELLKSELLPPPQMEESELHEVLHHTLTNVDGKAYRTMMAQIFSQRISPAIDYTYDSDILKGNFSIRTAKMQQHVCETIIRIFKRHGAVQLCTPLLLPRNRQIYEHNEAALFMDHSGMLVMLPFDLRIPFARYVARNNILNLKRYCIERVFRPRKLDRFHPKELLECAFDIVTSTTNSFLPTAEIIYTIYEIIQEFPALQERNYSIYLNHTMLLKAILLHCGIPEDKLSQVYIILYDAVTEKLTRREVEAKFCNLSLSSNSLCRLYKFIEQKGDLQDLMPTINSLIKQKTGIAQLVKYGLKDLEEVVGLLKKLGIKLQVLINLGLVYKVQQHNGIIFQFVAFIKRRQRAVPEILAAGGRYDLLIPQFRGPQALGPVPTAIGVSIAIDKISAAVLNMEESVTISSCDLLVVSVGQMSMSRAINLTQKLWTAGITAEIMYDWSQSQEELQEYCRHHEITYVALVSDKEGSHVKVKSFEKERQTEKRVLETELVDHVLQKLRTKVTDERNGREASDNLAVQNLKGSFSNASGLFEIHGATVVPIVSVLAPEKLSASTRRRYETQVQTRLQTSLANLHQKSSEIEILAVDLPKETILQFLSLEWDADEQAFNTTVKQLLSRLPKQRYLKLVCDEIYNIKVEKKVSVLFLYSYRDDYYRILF
Test [7] addresses Dual specificity tyrosine-phosphorylation-regulated kinase 1B (Homo sapiens) (UniProt Q9Y463). The experiment in a line: Inhibition of DYRK1B (unknown origin) assessed as residual activity at 100 nM by KINOMEscan analysis relative to control.
Test [8] has as its target Cyclin-dependent kinase 16 (Homo sapiens) (UniProt Q00536). The experiment in a line: Inhibition of PCTK1 (unknown origin) assessed as residual activity at 100 nM by KINOMEscan analysis relative to control.

The structures appear in SMILES notation.

Sequence of Serine/threonine-protein kinase pim-1 (Homo sapiens) (P11309 whole entry, looked up): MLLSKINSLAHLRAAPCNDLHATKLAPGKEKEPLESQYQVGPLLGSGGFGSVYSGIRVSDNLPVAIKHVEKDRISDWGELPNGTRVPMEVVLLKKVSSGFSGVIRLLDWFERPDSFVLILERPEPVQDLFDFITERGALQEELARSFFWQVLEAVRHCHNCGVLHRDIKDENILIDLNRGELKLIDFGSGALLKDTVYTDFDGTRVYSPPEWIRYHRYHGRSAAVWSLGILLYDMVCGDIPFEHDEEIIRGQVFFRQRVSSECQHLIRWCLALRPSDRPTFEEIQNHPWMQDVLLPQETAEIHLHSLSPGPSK
Sequence of Cyclin-dependent kinase 16 (Homo sapiens) (Q00536 whole entry): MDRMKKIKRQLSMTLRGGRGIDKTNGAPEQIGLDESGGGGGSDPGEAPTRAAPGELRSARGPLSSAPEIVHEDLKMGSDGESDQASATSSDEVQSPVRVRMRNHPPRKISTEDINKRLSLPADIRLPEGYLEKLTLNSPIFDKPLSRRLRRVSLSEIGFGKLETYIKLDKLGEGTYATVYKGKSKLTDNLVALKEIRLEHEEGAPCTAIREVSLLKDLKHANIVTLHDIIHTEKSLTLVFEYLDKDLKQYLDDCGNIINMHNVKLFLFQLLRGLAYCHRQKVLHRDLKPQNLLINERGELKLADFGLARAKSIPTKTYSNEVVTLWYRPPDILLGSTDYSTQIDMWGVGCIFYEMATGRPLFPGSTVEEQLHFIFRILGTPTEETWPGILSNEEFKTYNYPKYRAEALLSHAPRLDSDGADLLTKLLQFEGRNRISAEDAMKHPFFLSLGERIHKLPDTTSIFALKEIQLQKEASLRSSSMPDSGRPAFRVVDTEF
Sequence of Macrophage colony-stimulating factor 1 receptor (Homo sapiens) (P07333 whole entry): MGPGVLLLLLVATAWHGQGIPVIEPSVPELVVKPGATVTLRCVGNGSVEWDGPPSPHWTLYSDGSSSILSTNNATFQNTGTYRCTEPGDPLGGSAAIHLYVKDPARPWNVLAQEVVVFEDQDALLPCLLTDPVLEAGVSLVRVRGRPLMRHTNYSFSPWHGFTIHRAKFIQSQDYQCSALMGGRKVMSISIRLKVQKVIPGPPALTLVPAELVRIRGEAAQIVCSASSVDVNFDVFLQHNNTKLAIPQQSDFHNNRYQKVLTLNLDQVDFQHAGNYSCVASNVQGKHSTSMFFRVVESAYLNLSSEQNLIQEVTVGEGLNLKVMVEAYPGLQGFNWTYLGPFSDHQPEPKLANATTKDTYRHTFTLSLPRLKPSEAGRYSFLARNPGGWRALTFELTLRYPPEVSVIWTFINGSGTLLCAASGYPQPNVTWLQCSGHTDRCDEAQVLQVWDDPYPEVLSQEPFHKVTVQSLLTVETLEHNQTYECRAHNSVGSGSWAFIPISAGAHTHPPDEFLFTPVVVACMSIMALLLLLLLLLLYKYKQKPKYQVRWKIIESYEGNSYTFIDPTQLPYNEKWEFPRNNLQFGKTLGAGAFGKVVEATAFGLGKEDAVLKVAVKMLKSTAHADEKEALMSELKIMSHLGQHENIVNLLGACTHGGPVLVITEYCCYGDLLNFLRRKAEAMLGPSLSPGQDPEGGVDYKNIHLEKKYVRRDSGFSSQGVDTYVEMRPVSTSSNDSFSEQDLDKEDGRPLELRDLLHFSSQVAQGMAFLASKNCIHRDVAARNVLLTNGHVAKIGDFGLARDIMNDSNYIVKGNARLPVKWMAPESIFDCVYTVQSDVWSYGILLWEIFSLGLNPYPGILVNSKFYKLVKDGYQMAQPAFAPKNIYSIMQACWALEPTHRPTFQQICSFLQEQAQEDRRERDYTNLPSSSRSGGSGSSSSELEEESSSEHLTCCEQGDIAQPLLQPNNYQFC
Sequence of Dual specificity tyrosine-phosphorylation-regulated kinase 1B (Homo sapiens) (Q9Y463 whole entry, looked up): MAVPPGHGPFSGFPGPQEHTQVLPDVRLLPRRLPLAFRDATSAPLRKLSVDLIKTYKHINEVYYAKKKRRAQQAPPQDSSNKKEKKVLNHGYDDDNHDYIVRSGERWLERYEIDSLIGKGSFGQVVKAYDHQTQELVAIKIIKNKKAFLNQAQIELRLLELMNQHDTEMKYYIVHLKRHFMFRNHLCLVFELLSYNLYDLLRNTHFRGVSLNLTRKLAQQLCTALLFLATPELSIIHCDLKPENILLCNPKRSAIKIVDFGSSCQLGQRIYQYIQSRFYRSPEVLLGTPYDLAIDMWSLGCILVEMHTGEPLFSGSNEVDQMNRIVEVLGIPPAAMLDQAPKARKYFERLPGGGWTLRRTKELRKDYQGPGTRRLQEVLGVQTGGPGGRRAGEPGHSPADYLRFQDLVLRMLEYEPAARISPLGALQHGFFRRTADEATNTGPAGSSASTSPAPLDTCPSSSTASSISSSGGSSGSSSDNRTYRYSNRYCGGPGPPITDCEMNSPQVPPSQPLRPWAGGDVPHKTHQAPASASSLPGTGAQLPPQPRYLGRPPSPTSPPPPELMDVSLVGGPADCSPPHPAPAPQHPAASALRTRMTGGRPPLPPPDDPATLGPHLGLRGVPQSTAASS

`COc1cc2ncnc(N[C@H](C)c3cccc4ccccc34)c2cc1OC`: the Activity in test [1] was determined as 96%; in test [2], 73%; in test [3] it was 89%; in test [4], 76%; in test [5], 82%; in test [6], 100%. For the same molecule, the figures for the Activity in test [7] and in test [8] were 76% and 96%, respectively.
